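Compound exposure: 48 hours, 5 concentrations, 96-well plates. GI50 marks 50% less growth.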 The source made the active and inactive calls. No stated cut-off is given here; in the data, active = GI50 up to about 1.1 µM and inactive = higher.
Experiments:
Assay in all cases: NCI tumour cell line growth inhibition, 48 h
LOX IMVI = tested on: LOX IMVI
A549 = tested on: A549
HCT-15 = tested on: HCT-15
MOLT-4 = tested on: MOLT-4
UACC-257 = tested on: UACC-257
Hs-578T = tested on: Hs-578T
HOP-62 = tested on: HOP-62
A498 = tested on: A498
NCI-H460 = tested on: NCI-H460
RPMI-8226 = tested on: RPMI-8226
MDA-MB-435 = tested on: MDA-MB-435
786-0 = tested on: 786-0
HL-60 = tested on: HL-60
SK-MEL-2 = tested on: SK-MEL-2
HCC 2998 = tested on: HCC 2998
OVCAR-5 = tested on: OVCAR-5
OVCAR-3 = tested on: OVCAR-3
COLO 205 = tested on: COLO 205
NCI/ADR-RES = tested on: NCI/ADR-RES
HT-29 = tested on: HT-29
SN12C = tested on: SN12C
HOP-92 = tested on: HOP-92
SK-MEL-5 = tested on: SK-MEL-5
PC-3 = tested on: PC-3
M14 = tested on: M14
SK-MEL-28 = tested on: SK-MEL-28
SF-539 = tested on: SF-539
SF-268 = tested on: SF-268
ACHN = tested on: ACHN
SF-295 = tested on: SF-295
SK-OV-3 = tested on: SK-OV-3
EKVX = tested on: EKVX
UO-31 = tested on: UO-31
HCT-116 = tested on: HCT-116
BT-549 = tested on: BT-549
SNB-19 = tested on: SNB-19
Malme-3M = tested on: Malme-3M
SR = tested on: SR
OVCAR-4 = tested on: OVCAR-4
MDA-N = tested on: MDA-N
SW-620 = tested on: SW-620
TK-10 = tested on: TK-10
CAKI-1 = tested on: CAKI-1
CCRF-CEM = tested on: CCRF-CEM
K562 = tested on: K562
IGROV-1 = tested on: IGROV-1
NCI-H23 = tested on: NCI-H23
MCF7 = tested on: MCF7
UACC-62 = tested on: UACC-62
OVCAR-8 = tested on: OVCAR-8
SNB-75 = tested on: SNB-75
MDA-MB-231 = tested on: MDA-MB-231
RXF 393 = tested on: RXF 393
NCI-H522 = tested on: NCI-H522
U-251 = tested on: U-251
T47D = tested on: T47D
DU-145 = tested on: DU-145
KM12 = tested on: KM12
NCI-H226 = tested on: NCI-H226

CC(C)CNC(=O)Cn1c2c(c3ccccc31)CCCC2
GI50 (LOX IMVI): 39.5 µM (inactive)
GI50 (A549): 49.7 µM (inactive)
GI50 (HCT-15): > 100 µM
GI50 (MOLT-4): 0.743 µM (active)
GI50 (UACC-257): > 100 µM (inactive)
GI50 (Hs-578T): 50.8 µM (inactive)
GI50 (HOP-62): 54.3 µM (inactive)
GI50 (A498): 22.2 µM (inactive)
GI50 (NCI-H460): 64.1 µM (inactive)
GI50 (RPMI-8226): 40.6 µM (inactive)
GI50 (MDA-MB-435): 73.3 µM (inactive)
GI50 (786-0): 20.7 µM (inactive)
GI50 (HL-60): 34 µM (inactive)
GI50 (SK-MEL-2): > 100 µM (inactive)
GI50 (HCC 2998): > 100 µM (inactive)
GI50 (OVCAR-5): > 100 µM (inactive)
GI50 (OVCAR-3): 39 µM (inactive)
GI50 (COLO 205): 73.8 µM (inactive)
GI50 (NCI/ADR-RES): 59.7 µM (inactive)
GI50 (HT-29): > 100 µM (inactive)
GI50 (SN12C): > 100 µM (inactive)
GI50 (HOP-92): 43.8 µM (inactive)
GI50 (SK-MEL-5): 64.7 µM (inactive)
GI50 (PC-3): 58.5 µM (inactive)
GI50 (M14): > 100 µM (inactive)
GI50 (SK-MEL-28): > 100 µM (inactive)
GI50 (SF-539): > 100 µM (inactive)
GI50 (SF-268): 37.5 µM (inactive)
GI50 (ACHN): 33 µM (inactive)
GI50 (SF-295): 35.8 µM (inactive)
GI50 (SK-OV-3): 23.7 µM (inactive)
GI50 (EKVX): 71 µM (inactive)
GI50 (UO-31): 28.3 µM (inactive)
GI50 (HCT-116): 27.8 µM (inactive)
GI50 (BT-549): > 100 µM (inactive)
GI50 (SNB-19): 85.3 µM (inactive)
GI50 (Malme-3M): 82.4 µM (inactive)
GI50 (SR): > 100 µM (inactive)
GI50 (OVCAR-4): 35.4 µM (inactive)
GI50 (MDA-N): 54 µM (inactive)
GI50 (SW-620): > 100 µM (inactive)
GI50 (TK-10): 35.8 µM (inactive)
GI50 (CAKI-1): 79.3 µM (inactive)
GI50 (CCRF-CEM): 56.4 µM (inactive)
GI50 (K562): 76.9 µM (inactive)
GI50 (IGROV-1): 14.9 µM (inactive)
GI50 (NCI-H23): > 100 µM (inactive)
GI50 (MCF7): > 100 µM (inactive)
GI50 (UACC-62): 50.1 µM (inactive)
GI50 (OVCAR-8): 81.5 µM (inactive)

Cc1ccccc1C1CC(=O)CC(c2ccccc2C)C12C(=O)NC(=O)NC2=O (stereo not drawn)
GI50 (LOX IMVI): > 100 µM (inactive)
GI50 (A549): > 100 µM (inactive)
GI50 (HCT-15): > 100 µM
GI50 (MOLT-4): > 78.5 µM (inactive)
GI50 (UACC-257): > 100 µM (inactive)
GI50 (Hs-578T): > 100 µM (inactive)
GI50 (HOP-62): > 100 µM (inactive)
GI50 (A498): > 100 µM (inactive)
GI50 (NCI-H460): > 88.5 µM (inactive)
GI50 (RPMI-8226): 26.9 µM (inactive)
GI50 (MDA-MB-435): > 77.8 µM (inactive)
GI50 (786-0): > 100 µM (inactive)
GI50 (HL-60): 55 µM (inactive)
GI50 (SK-MEL-2): > 100 µM (inactive)
GI50 (HCC 2998): > 100 µM (inactive)
GI50 (OVCAR-5): > 100 µM (inactive)
GI50 (OVCAR-3): > 100 µM (inactive)
GI50 (COLO 205): > 100 µM (inactive)
GI50 (NCI/ADR-RES): > 100 µM (inactive)
GI50 (HT-29): > 100 µM (inactive)
GI50 (SN12C): 1.98 µM (inactive)
GI50 (SNB-75): > 100 µM (inactive)
GI50 (HOP-92): 19 µM (inactive)
GI50 (SK-MEL-5): > 100 µM (inactive)
GI50 (MDA-MB-231): > 100 µM (inactive)
GI50 (PC-3): > 100 µM (inactive)
GI50 (M14): > 100 µM (inactive)
GI50 (RXF 393): > 100 µM (inactive)
GI50 (SK-MEL-28): > 100 µM (inactive)
GI50 (NCI-H522): > 75.3 µM (inactive)
GI50 (U-251): > 100 µM (inactive)
GI50 (SF-539): > 32.4 µM (inactive)
GI50 (SF-268): > 100 µM (inactive)
GI50 (ACHN): > 100 µM (inactive)
GI50 (SF-295): > 100 µM (inactive)
GI50 (SK-OV-3): > 100 µM (inactive)
GI50 (EKVX): > 100 µM (inactive)
GI50 (UO-31): > 100 µM (inactive)
GI50 (HCT-116): > 100 µM (inactive)
GI50 (BT-549): > 100 µM (inactive)
GI50 (SNB-19): > 100 µM (inactive)
GI50 (Malme-3M): > 100 µM (inactive)
GI50 (T47D): > 100 µM (inactive)
GI50 (SR): > 100 µM (inactive)
GI50 (OVCAR-4): > 62.4 µM (inactive)
GI50 (SW-620): > 100 µM (inactive)
GI50 (TK-10): > 100 µM (inactive)
GI50 (CAKI-1): > 100 µM (inactive)
GI50 (DU-145): > 100 µM (inactive)
GI50 (CCRF-CEM): > 65.3 µM (inactive)
GI50 (K562): > 100 µM (inactive)
GI50 (IGROV-1): 62.5 µM (inactive)
GI50 (NCI-H23): > 100 µM (inactive)
GI50 (KM12): > 100 µM (inactive)
GI50 (MCF7): > 73.6 µM (inactive)
GI50 (UACC-62): > 100 µM (inactive)
GI50 (OVCAR-8): > 100 µM (inactive)
GI50 (NCI-H226): > 100 µM (inactive)

From ChEMBL document CHEMBL1201862, “PubChem BioAssay data set” (2004)
